Drawing on patent publication US9850225B2, “Compounds useful as immunomodulators” (BRISTOL-MYERS SQUIBB COMPANY, priority 2014, dated 2017), this text covers IC50 for 27 molecules.

PD-1/PD-L1 interaction (PD-1-Ig / PD-L1-His), sequence (Q9NZQ7 other isoform, or with tags, fused parts or gaps): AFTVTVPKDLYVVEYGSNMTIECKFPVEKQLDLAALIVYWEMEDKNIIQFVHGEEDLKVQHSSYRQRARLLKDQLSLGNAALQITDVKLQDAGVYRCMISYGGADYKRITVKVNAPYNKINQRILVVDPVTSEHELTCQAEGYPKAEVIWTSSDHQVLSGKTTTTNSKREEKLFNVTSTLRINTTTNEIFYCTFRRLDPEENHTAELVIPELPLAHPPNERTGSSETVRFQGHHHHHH

One test has as its target PD-1/PD-L1 interaction (PD-1-Ig / PD-L1-His) (Homo sapiens (Human), UniProt Q9NZQ7). Put plainly: PD-1/PD-L1 Homogenous Time-Resolved Fluorescence (HTRF) binding assay. The settings on record: PD-1/PD-L1 HTRF binding assay; numeric value; read-out: Range or IC50. In short, it runs like this:
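Human PD-L1-His (10 nM final) was pre-incubated with inhibitor for 15 min, then PD-1-Ig (20 nM final) was added for a further 15 min in dPBS with 0.1% BSA and 0.05% Tween-20. Binding was detected by HTRF using Eu-cryptate anti-Ig (1 nM) and APC anti-His (20 nM).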
On to `Cc1c(COc2cc(OCc3cccc(C#N)c3)c(CN[C@H](CCO)C(=O)O)cc2Cl)cccc1-c1ccc2c(c1)OCCO2` [Example 1205, (R)-2-((5-chloro-2-((3-cyanobenzyl)oxy)-4-((3-(2,3-dihydrobenzo[b][1,4]dioxin-6-yl)-2-methylbenzyl)oxy)benzyl)amino)-4-hydroxybutanoic acid], for which the IC50 amounted to 0.00271 µM. Still for that read-out and setting: the same measure for `Cc1c(COc2cc(OCc3cccc(C#N)c3)c(CNC3(C(=O)O)CCN(C)CC3)cc2Cl)cccc1-c1ccc2c(c1)OCCO2` [Example 1220, 4-((5-chloro-2-((3-cyanobenzyl)oxy)-4-((3-(2,3-dihydrobenzo[b][1,4]dioxin-6-yl)-2-methylbenzyl)oxy)benzyl)amino)-1-methylpiperidine-4-carboxylic acid]: 0.00607 µM.

The test is the same for the next values; noted with them: PD-1/PD-L1 HTRF binding assay; value given as range class; read-out: Range or IC50.
Consider `Cc1c(COc2cc(OCc3cccc(C#N)c3)c(CN3CCCC[C@H]3C(=O)O)cc2Br)cccc1-c1ccc2c(c1)OCCO2` [Example 1302, (S)-1-(5-bromo-2-((3-cyanobenzyl)oxy)-4-((3-(2,3-dihydrobenzo[b][1,4]dioxin-6-yl)-2-methylbenzyl)oxy)benzyl)piperidine-2-carboxylic acid], for which the IC50 was in the range of 0.0006 to 0.01 µM. Same read-out and setting: the value for `CC(=O)NCCNCc1ccc(OCc2cccc(-c3ccccc3)c2C)cc1OCc1ccc(Br)cc1C#N` [Example 1097, N-(2-((2-((4-bromo-2-cyanobenzyl)oxy)-4-((2-methyl-[1,1′-biphenyl]-3-yl)methoxy)benzyl)amino)ethyl)acetamide] was 0.1 to 20 µM. On to `Cc1c(COc2cc(OCc3cncc(C#N)c3)c(CN[C@@H](CO)C(=O)O)cc2Br)cccc1-c1ccc2c(c1)OCCO2` [Example 1318, (S)-2-(5-bromo-2-((5-cyanopyridin-3-yl)methoxy)-4-(3-(2,3-dihydrobenzo[b][1,4]dioxin-6-yl)-2-methylbenzyloxy)benzylamino)-3-hydroxypropanoic acid], for which the IC50 lay in the range of 0.0006 to 0.01 µM. Same read-out and setting: the value for `Cc1cc(CN2CCCC[C@H]2C(=O)O)c(OCc2cncc(C#N)c2)cc1OCc1cccc(-c2ccc3c(c2)OCCO3)c1Cl` [Example 1152, (S)-1-(4-(2-chloro-3-(2,3-dihydrobenzo[b][1,4]dioxin-6-yl)benzyloxy)-2-((5-cyanopyridin-3-yl)methoxy)-5-methylbenzyl)piperidine-2-carboxylic acid] was 0.0006 to 0.01 µM. Turning to `COC(=O)CCCCOc1cc(OCc2cccc(-c3ccccc3)c2C)ccc1CNCCNC(C)=O` [Example 1032, methyl 5-(2-(((2-acetamidoethyl)amino)methyl)-5-((2-methyl-[1,1′-biphenyl]-3-yl)methoxy)phenoxy)pentanoate], the IC50 is 0.1 to 20 µM.

Turning to `Cc1c(COc2cc(OCc3cccc(C#N)c3)c(CN3CC[C@@H](O)[C@H]3C(=O)O)cc2Cl)cccc1-c1ccc2c(c1)OCCO2` [Example 1204, (2S,3R)-1-(5-chloro-2-((3-cyanobenzyl)oxy)-4-((3-(2,3-dihydrobenzo[b][1,4]dioxin-6-yl)-2-methylbenzyl)oxy)benzyl)-3-hydroxypyrrolidine-2-carboxylic acid], the IC50 lay in the range of 0.0006 to 0.01 µM. Same read-out and setting: the value for `Cc1cc(OCc2cccc(-c3ccc4c(c3)OCCO4)c2C)cc(OCc2cncc(C#N)c2)c1CN1CCCC[C@H]1C(=O)O` [Example 1009, (S)-1-(2-((5-cyanopyridin-3-yl)methoxy)-4-(3-(2,3-dihydrobenzo[b][1,4]dioxin-6-yl)-2-methylbenzyloxy)-6-methylbenzyl)piperidine-2-carboxylic acid] was 0.0006 to 0.01 µM; that for `CC(=O)NCCNCc1ccc(OCc2cccc(-c3ccccc3)c2C)cc1OCc1cc(F)cc(F)c1` [Example 1062, N-(2-((2-((3,5-difluorobenzyl)oxy)-4-((2-methyl-[1,1′-biphenyl]-3-yl)methoxy)benzyl)amino)ethyl)acetamide] was 0.1 to 20 µM; that for `Cc1c(COc2cc(OCc3cncc(C#N)c3)c(CN[C@H](CO)C(=O)O)cc2Cl)cccc1-c1ccc2c(c1)OCCO2` [Example 1249, (R)-2-((5-chloro-2-((5-cyanopyridin-3-yl)methoxy)-4-((3-(2,3-dihydrobenzo[b][1,4]dioxin-6-yl)-2-methylbenzyl)oxy)benzyl)amino)-3-hydroxypropanoic acid] was 0.0006 to 0.01 µM. Same read-out and setting: the value for `Cc1c(COc2cc(OCc3cccc(C#N)c3)c(CN[C@@H](CO)C(=O)O)cc2Br)cccc1-c1ccc2c(c1)OCCO2` [Example 1301, (S)-2-((5-bromo-2-((3-cyanobenzyl)oxy)-4-((3-(2,3-dihydrobenzo[b][1,4]dioxin-6-yl)-2-methylbenzyl)oxy)benzyl)amino)-3-hydroxypropanoic acid] was 0.0006 to 0.01 µM. Same read-out and setting: the value for `CC(=O)NCCNCc1ccc(OCc2cccc(-c3ccccc3)c2C)c(Cl)c1OCc1cccc(C#N)c1` [Example 1234, N-(2-(3-chloro-2-(3-cyanobenzyloxy)-4-((2-methylbiphenyl-3-yl)methoxy)benzylamino)ethyl)acetamide] was 0.1 to 20 µM; that for `CC(=O)NCCNCc1ccc(OCc2cccc(-c3ccccc3)c2C)cc1OCc1cccc2ccccc12` [Example 1063, N-(2-((4-((2-methyl-[1,1′-biphenyl]-3-yl)methoxy)-2-(naphthalen-1-ylmethoxy)benzyl)amino)ethyl)acetamide] was 0.1 to 20 µM; that for `COC(=O)CCCOc1cc(OCc2cccc(-c3ccccc3)c2C)ccc1CNCCNC(C)=O` [Example 1036, methyl 4-(2-(((2-acetamidoethyl)amino)methyl)-5-((2-methyl-[1,1′-biphenyl]-3-yl)methoxy)phenoxy)butanoate] was 0.1 to 20 µM. `Cc1cc(CNC[C@@H](O)CC(=O)O)c(OCc2cncc(C#N)c2)cc1OCc1cccc(-c2ccc3c(c2)OCCO3)c1C#N` [Example 1307, (S)-4-(4-(2-cyano-3-(2,3-dihydrobenzo[b][1,4]dioxin-6-yl)benzyloxy)-2-((5-cyanopyridin-3-yl)methoxy)-5-methylbenzylamino)-3-hydroxybutanoic acid]: the IC50 fell in the range of 0.0006 to 0.01 µM.

As for `CC(=O)NCCNCc1c(C)cc(OCc2cccc(-c3ccc4c(c3)OCCO4)c2C)cc1OCc1cccc(C#N)c1` [Example 1000, N-(2-(2-(3-cyanobenzyloxy)-4-(3-(2,3-dihydrobenzo[b][1,4]dioxin-6-yl)-2-methylbenzyloxy)-6-methylbenzylamino)ethyl)acetamide], the IC50 was 0.01 to 0.1 µM. The same measure, in the same setting: the same measure for `CC(=O)NCCNCc1ccc(OCc2cccc(-c3ccccc3)c2C)cc1OCc1ccccc1F` [Example 1048, N-(2-((2-((2-fluorobenzyl)oxy)-4-((2-methyl-[1,1′-biphenyl]-3-yl)methoxy)benzyl)amino)ethyl)acetamide]: 0.1 to 20 µM. As to `Cc1cc(CN[C@@](C)(CO)C(=O)O)c(OCc2cccc(C#N)c2)cc1OCc1cccc(-c2ccc3c(c2)OCCO3)c1C` [Example 1267, (S)-2-((2-((3-cyanobenzyl)oxy)-4-((3-(2,3-dihydrobenzo[b][1,4]dioxin-6-yl)-2-methylbenzyl)oxy)-5-methylbenzyl)amino)-3-hydroxy-2-methylpropanoic acid], the IC50 fell in the range of 0.0006 to 0.01 µM. The same measure, in the same setting: the value for `CC(=O)NCCNCc1ccc(OCc2cccc(-c3ccccc3)c2C)cc1OCc1cc(C)ccc1F` [Example 1094, N-(2-((2-((2-fluoro-5-methylbenzyl)oxy)-4-((2-methyl-[1,1′-biphenyl]-3-yl)methoxy)benzyl)amino)ethyl)acetamide] was 0.1 to 20 µM; that for `Cc1c(COc2cc(OCc3cccc(C#N)c3)c(CNC(Cc3cn(C)c4ccccc34)C(=O)O)cc2Cl)cccc1-c1ccc2c(c1)OCCO2` (stereo not drawn) [Example 1168, 2-((5-chloro-2-((3-cyanobenzyl)oxy)-4-((3-(2,3-dihydrobenzo[b][1,4]dioxin-6-yl)-2-methylbenzyl)oxy)benzyl)amino)-3-(1-methyl-1H-indol-3-yl)propanoic acid] was 0.1 to 20 µM. Turning to `N#Cc1cccc(COc2cc(OCc3cccc(-c4ccc5c(c4)OCCO5)c3C#N)c(Br)cc2CNC[C@@H](O)CC(=O)O)c1` [Example 1314, (S)-4-((5-bromo-4-((2-cyano-3-(2,3-dihydrobenzo[b][1,4]dioxin-6-yl)benzyl)oxy)-2-((3-cyanobenzyl)oxy)benzyl)amino)-3-hydroxybutanoic acid], the IC50 fell in the range of 0.0006 to 0.01 µM. Still for that read-out and setting: the value for `CCc1cc(CNCCNC(C)=O)c(OCc2cccc(C#N)c2)cc1OCc1cccc(-c2ccc3c(c2)OCCO3)c1C` [Example 1289, N-(2-(2-(3-cyanobenzyloxy)-4-(3-(2,3-dihydrobenzo[b][1,4]dioxin-6-yl)-2-methylbenzyloxy)-5-ethylbenzylamino)ethyl)acetamide] was 0.0006 to 0.01 µM. Still for that read-out and setting: the value for `Cc1c(COc2cc(OCc3cccc(C#N)c3)c(CN[C@H](CO)C(=O)O)cc2Cl)cccc1-c1ccc2c(c1)OCCO2` [Example 1157, (R)-2-((5-chloro-2-((3-cyanobenzyl)oxy)-4-((3-(2,3-dihydrobenzo[b][1,4]dioxin-6-yl)-2-methylbenzyl)oxy)benzyl)amino)-3-hydroxypropanoic acid] was 0.0006 to 0.01 µM; that for `Cc1c(COc2cc(OCc3cccc(C#N)c3)c(CNC[C@@H](O)CC(=O)O)cc2Br)cccc1-c1ccc2c(c1)OCCO2` [Example 1300, (S)-4-((5-bromo-2-((3-cyanobenzyl)oxy)-4-((3-(2,3-dihydrobenzo[b][1,4]dioxin-6-yl)-2-methylbenzyl)oxy)benzyl)amino)-3-hydroxybutanoic acid] was 0.0006 to 0.01 µM; that for `CCOc1cc(OCc2cccc(-c3ccccc3)c2C)ccc1CNCCNC(C)=O` [Example 1044, N-(2-((2-ethoxy-4-((2-methyl-[1,1′-biphenyl]-3-yl)methoxy)benzyl)amino)ethyl)acetamide] was 0.1 to 20 µM.

The same test, now with this note: PD-1/PD-L1 HTRF binding assay; μM; read-out: Range or IC50.
On to `COc1ccccc1COc1cc(OCc2cccc(-c3ccc4c(c3)OCCO4)c2C)c(Cl)cc1CN1CCCC[C@H]1C(=O)O` [Example 3029, (S)-1-(5-chloro-4-((3-(2,3-dihydrobenzo[b][1,4]dioxin-6-yl)-2-methylbenzyl)oxy)-2-((2-methoxybenzyl)oxy)benzyl)piperidine-2-carboxylic acid], for which the half-inhibitory concentration (IC50) is 2.35 µM.
